Read-outs that look alike come from different tables or passages of the source. One block for each molecule: values may come before it.
Tests used:
[1] = test system: rat gastric fundus strips; experiment: Contraction of rat gastric fundus strips; assay type: cell-based; details: for relative potency of inhibition of contraction amplitude: 5HT (10 μM) present, FIG. 8
Experimental: Male and female Sprague-Dawley rats weighing 200-300 g were anesthetized with 40 mg/kg sodium pentobarbital given intraperitoneally. After deep anesthesia was obtained, exsanguination was accomplished by severing both the jugular vein and common carotid artery. The abdomen was opened at the midline and the stomach was removed, and transferred to the ice cold oxygenated Krebs' solution at pH 7.4. The stomach was dissected out and the pink pyloric end cut away from the grey fundal end. The fundal end was split open so as to form a sheet, the contents were washed away. Longitudinal muscle strips (3×20 mm) of the gastric fundus were prepared as described by Vane (Vane, Br. J. Pharmac. Chemother., 12:344, 1957). The strips were mounted under a 1-g resting tension between two parallel platinum electrodes placed inside the organ baths containing 20-ml of the gassed Krebs' solution. The Krebs' solution also contained atropine (1 μM) and guanethidine (4 μM) to block cholinergic and adrenergic involvement in response to field stimulation of intramural nerves and 5-hydroxytryptamine (5-HT, 5-10 μM) to raise the tone of the smooth muscle. In some experiments, indomethacin (10 μM) was present in Krebs' to avoid the influence of endogenous prostaglandins. Tissues were allowed to equilibrate for 1 h with changes of Krebs' solution every 10 minutes.
After the equilibration period, relaxations of smooth muscle were elicited by VIP, VIPGC, VIPGC-NO, isoproterenol and GSNO. In some experiments, the strips were incubated for 10 minutes with N^G -monomethyl L-arginine (L-NMMA).

rabbit sphincter of Oddi = experiment: Contractility of isolated rabbit sphincter of Oddi; assay type: cell-based; details: for effect on ACh-induced contractions: ACh-pretreated (10 μM), cumulative addition, peptides 1 nM-1 μM, GSNO 0.1-100 μM; for inhibition at 100 µM: Oryctolagus cuniculus
Description: The preparation of rabbit sphincters of Oddi (SO) was similar to that described previously (Slivka et al. 1994) with minor modifications. Briefly, the rabbit abdomen was opened at the midline. The gall bladder, bile duct, gastric antrum and contiguous duodenum were isolated, removed en bloc, and transferred to ice cold Krebs' solution at pH 7.4. The duodenum was opened along the antimesenteric border as was the adjacent pylorus and gastric antrum. From the luminal surface, the ampulla of Vater was identified and the SO isolated on ice under an illuminated magnifier by sharp dissection.
The SO were mounted on pairs of the hooks and suspended in organ chambers containing the Krebs' solution at 37° C. Resting tension was adjusted to 1 g, and circular contractions were monitored by the FT03C force transducer and recorded on the model 7 Grass polygraphs. SO were allowed to equilibrate as described above. […] Some experiments were performed by using ACh to intensify SO contractility, and then the effects of VIP, VIPGC-NO, VIPGC and GSNO on SO contractility were tested. After each experimental observation was complete, the SO were washed at least three times with fresh Krebs' solution.

[2] = test system: cGMP and cAMP content of rabbit aortic rings; experiment: Cyclic GMP and cyclic AMP content of rabbit aortic rings (enzyme-immunoassay); assay type: cell-based; details: 1 μM, FIG. 9; for cGMP content of aortic rings: at maximum relaxation
Experimental: (§3) Frozen tissues were homogenized in ice-cold 6% trichloroacetic acid to give approximately a 10% (w/v) homogenate. The homogenates were centrifuged at 2,000 g for 15 minutes at 4° C. The supernatant fractions were decanted off the pellets and washed four times with 5 volumes of water-saturated ethyl ether, and the aqueous extracts remaining were saved for assay for cyclic GMP and AMP using enzyme-immunoassay kits (Amersham Life Science Inc., Arlington Heights, IL).

rabbit aortic rings = experiment: Relaxation of precontracted rabbit aortic rings (isometric tension); assay type: cell-based; details: for relaxation of aortic rings, cumulative additions: intact rings precontracted with phenylephrine (100 μM), 10 nM to 1 μM, FIG. 2
Experimental: Briefly, male New Zealand rabbits weighing 1.5 to 2.0 Kg were anesthetized by an intravenous injection of sodium pentobarbital (40 mg/kg) into a marginal ear vein. The descending thoracic aorta was quickly removed and placed in ice-cold Krebs' solution containing the following composition (mM): NaCl, 118; KCl, 4.8; MgSO4, 1.2; CaCl2, 2.5; KH2 PO4, 1.2; NaHCO3, 25; glucose, 11; Na2 EDTA, 0.03. The thoracic aorta was first trimmed free of most adipose and connective tissue. It was then cut into transverse rings by placing it at a right angle across five parallel razor blades mounted at 2.5 mm intervals in a plastic holder and then rolling a large polypropylene pipette tip over it (simultaneously producing four rings of equal size). The aortic rings and other tissues (see the following) used in this study, were mounted on pairs of L-shaped hooks and suspended in Krebs' solution (gassed with 95% 02 /5% CO2, 37° C.) in 20 ml organ chambers unless stated otherwise.
Results are expressed in percentage of relaxation of phenylephrine-induced tone.

corpora cavernosa = experiment: Erectile response (intracavernosal pressure) in vivo in the anesthetized dog
Experimental: (§1) Male mongrel dogs (20-30 kg) were used as the animal model. Under pentobarbital anesthesia (30 mg/kg) and mechanical respiration, a 20 gauge anglocatheter was placed into the carotid artery for measurement of systemic blood pressure. A ventral incision was made in the penis and the corpora cavernosa were exposed.
(§2) A 19 gauge minicatheter was inserted deep into the cavernosal tissue, on each corpus, for pressure measurement and delivery of either VIP, VIP-Gly-Cys-NO, VIP-Gly-Cys-NH2 or papaverine. […] Drugs were delivered intracavernosally in solution, 0.5 ml volume, at variable syringe concentrations, starting at 10^-7 M and progressively increasing the dose up to, in some instances, 10^-4 M. In most experiments, at the end, papaverine 80 mM was administered intracavernosally in order to compare this response to those elicited by VIP or its analogs. At all times systemic blood pressure was monitored, for comparison with intracavernosal pressure.

[3] = test system: cGMP and cAMP content of guinea pig tracheal rings; experiment: Cyclic GMP and cyclic AMP content of guinea pig tracheal rings (enzyme-immunoassay); assay type: cell-based; details: 100 nM, n=4, FIG. 10; for cGMP content of tracheal rings: at plateau of relaxation
Experimental: as §3

guinea-pig trachea [4] = details: for time for relaxation to reach a plateau: 100 nM; for effect of pretreatment with 100 nM propanol on the induced relaxation: cumulative additions, dose range 10-320 nM; for IC50: read-out: IC50 of relaxation of tracheal rings, precontracted with 10 μM methacholine, FIG. 4
Experimental: (§4) Male Hartley guinea pigs (300-400 g) were anesthetized by use of intraperitoneal injection of pentobarbital sodium (40 mg/kg) to achieve a deep plane of anesthesia. The tracheas were dissected out, transferred to cold Krebs' solution. Tracheas were then dissected free from surrounding fat and connective tissue and cut transversely between the segments of cartilage, so as to give tracheal rings about 2 mm thick. The rings were suspended between stainless-steel hooks in the 20 ml organ baths containing the above-mentioned Krebs' solution at 37° C. The hooks were connected to the FT03C transducers. Rings were equilibrated at a basal tension of 1 g as described above and then primed twice with methacholine (100 nM). The rings were rinsed throughout after each priming exposure. Tracheal rings were not used if they could not sustain at least 1 g tension when exposed to 100 nM methacholine. The surface of organ baths was treated with 1N HCl to minimize contamination and allowed to dry in room air before Krebs' solution were added. For relaxation studies, methacholine (100 nM) was used to contract the tracheal rings and results are expressed in percentage of relaxation of methacholine-induced tone.

[5] = dog, in vivo
Experimental: as §1, §2

guinea-pig trachea [6] = experiment: tissue or blood; details: Cavia porcellus, read-out: IC50 of relaxation of tracheal rings
Experimental: as §4

Compound: NCCc1c[nH]c2ccc(O)cc12 [5HT, 5-hydroxytryptamine]
- effect on contractions of the strips ([1]; 10 μM): significant increase in contractions

Compound: CC(=O)OCC[N+](C)(C)C [ACh, acetylcholine]
- acceleration in phasic contractions (rabbit sphincter of Oddi; 10 μM, n=12): 69±15%
- elevations in tonic pressure (rabbit sphincter of Oddi; 10 μM, n=12): 73±12%

- cAMP content of aortic rings [2]: no significant increase in cAMP content
Compound: N[C@@H](CCC(=O)N[C@@H](CSN=O)C(=O)NCC(=O)O)C(=O)O [GSNO, S-nitrosoglutathione]
- cGMP content of aortic rings [2]: significant increase in cGMP concentration
- relative potency of inhibition of contraction amplitude [1]: two least potent inhibitors
- effect on ACh-induced contractions (rabbit sphincter of Oddi): gradually attenuated
- inhibition at 100 µM (rabbit sphincter of Oddi; ACh 10 μM, read-out: inhibition of ACh-enhanced phasic contractions): 89 ± 5%
- inhibition at 100 µM (rabbit sphincter of Oddi; read-out: inhibition of basic contractility of sphincter of Oddi): 91 ± 9%
- relaxation of aortic rings, cumulative additions (rabbit aortic rings): also observed in the rings exposed to GSNO

Compound: CC[C@H](C)[C@H](NC(=O)[C@H](CO)NC(=O)[C@H](CC(N)=O)NC(=O)[C@H](CC(C)C)NC(=O)[C@H](Cc1ccc(O)cc1)NC(=O)[C@H](CCCCN)NC(=O)[C@H](CCCCN)NC(=O)[C@@H](NC(=O)[C@H](C)NC(=O)[C@H](CCSC)NC(=O)[C@H](CCC(N)=O)NC(=O)[C@H](CCCCN)NC(=O)[C@H](CCCNC(=N)N)NC(=O)[C@H](CC(C)C)NC(=O)[C@H](CCCNC(=N)N)NC(=O)[C@@H](NC(=O)[C@H](Cc1ccc(O)cc1)NC(=O)[C@H](CC(N)=O)NC(=O)[C@H](CC(=O)O)NC(=O)[C@@H](NC(=O)[C@H](Cc1ccccc1)NC(=O)[C@@H](NC(=O)[C@H](C)NC(=O)[C@H](CC(=O)O)NC(=O)[C@H](CO)NC(=O)[C@@H](N)Cc1c[nH]cn1)C(C)C)[C@@H](C)O)[C@@H](C)O)C(C)C)C(=O)N[C@@H](CC(C)C)C(=O)N[C@@H](CC(N)=O)C(N)=O [VIP, vasoactive intestinal peptide]
- cGMP content of aortic rings [2]: less than that of VIPGC-NO or GSNO
- cAMP content of aortic rings [2]: no significant increase in cAMP content
- erectile response (corpora cavernosa; 10^-5 M, FIG. 16): partial and short erectile response
- erectile response (corpora cavernosa; intracavernosal 10^-5 M, FIG. 13): capable of inducing sustained penile erection
- cGMP content of tracheal rings [3]: significant increase in the content of cGMP
- cAMP content of tracheal rings [3]: no concomitant increases in the cAMP level
- time for relaxation to reach a plateau (guinea-pig trachea [4]): about 20 minutes
- effect of pretreatment with 100 nM propanol on the induced relaxation (guinea-pig trachea [4]): did not antagonize
- persistence of effect (rabbit sphincter of Oddi): at least 90 minutes
- time to observed effect after addition to organ chambers (rabbit sphincter of Oddi): ≤ 2 min
- inhibition of contraction frequency (rabbit sphincter of Oddi; 1 μM): 94±16%
- inhibition of ACh-enhanced phasic contractions (rabbit sphincter of Oddi; 1 μM, ACh 10 μM): 93±7%
- effect on ACh-induced contractions (rabbit sphincter of Oddi): gradually attenuated
- inhibition of basic contraction frequency and amplitude (rabbit sphincter of Oddi; cumulative addition 1 nM-1 μM, FIG. 5, 6): inhibited both basic contraction frequency and amplitude dose-dependently
- irregular and incomplete contractions noted during incubation (rabbit sphincter of Oddi; single dose 0.1 μM, 30 minutes, n=5, FIG. 7): 40±11
- relaxation of aortic rings, cumulative additions (rabbit aortic rings): certain degree of relaxation only at 1 μM
- relaxation of phenylephrine-precontracted aortic rings (rabbit aortic rings; single doses (1 μM), FIG. 3): 19±4%

Compound: CC[C@H](C)[C@H](NC(=O)[C@H](CO)NC(=O)[C@H](CC(N)=O)NC(=O)[C@H](CC(C)C)NC(=O)[C@H](Cc1ccc(O)cc1)NC(=O)[C@H](CCCCN)NC(=O)[C@H](CCCCN)NC(=O)[C@@H](NC(=O)[C@H](C)NC(=O)[C@H](CCSC)NC(=O)[C@H](CCC(N)=O)NC(=O)[C@H](CCCCN)NC(=O)[C@H](CCCNC(=N)N)NC(=O)[C@H](CC(C)C)NC(=O)[C@H](CCCNC(=N)N)NC(=O)[C@@H](NC(=O)[C@H](Cc1ccc(O)cc1)NC(=O)[C@H](CC(N)=O)NC(=O)[C@H](CC(=O)O)NC(=O)[C@@H](NC(=O)[C@H](Cc1ccccc1)NC(=O)[C@@H](NC(=O)[C@H](C)NC(=O)[C@H](CC(=O)O)NC(=O)[C@H](CO)NC(=O)[C@@H](N)Cc1c[nH]cn1)C(C)C)[C@@H](C)O)[C@@H](C)O)C(C)C)C(=O)N[C@@H](CC(C)C)C(=O)N[C@@H](CC(N)=O)C(=O)NCC(=O)N[C@@H](CS)C(N)=O [VIPGC, VIP-Gly-Cys-NH2]
- IC50 (guinea-pig trachea [4]): 59 ± 9 nM
- diastolic blood pressure (DBP) [5]: 120 mm Hg

Compound: CC[C@H](C)[C@H](NC(=O)[C@H](CO)NC(=O)[C@H](CC(N)=O)NC(=O)[C@H](CC(C)C)NC(=O)[C@H](Cc1ccc(O)cc1)NC(=O)[C@H](CCCCN)NC(=O)[C@H](CCCCN)NC(=O)[C@@H](NC(=O)[C@H](C)NC(=O)[C@H](CCSC)NC(=O)[C@H](CCC(N)=O)NC(=O)[C@H](CCCCN)NC(=O)[C@H](CCCNC(=N)N)NC(=O)[C@H](CC(C)C)NC(=O)[C@H](CCCNC(=N)N)NC(=O)[C@@H](NC(=O)[C@H](Cc1ccc(O)cc1)NC(=O)[C@H](CC(N)=O)NC(=O)[C@H](CC(=O)O)NC(=O)[C@@H](NC(=O)[C@H](Cc1ccccc1)NC(=O)[C@@H](NC(=O)[C@H](C)NC(=O)[C@H](CC(=O)O)NC(=O)[C@H](CO)NC(=O)[C@@H](N)Cc1c[nH]cn1)C(C)C)[C@@H](C)O)[C@@H](C)O)C(C)C)C(=O)N[C@@H](CC(C)C)C(=O)N[C@@H](CC(N)=O)C(=O)NCC(=O)N[C@@H](CSN=O)C(N)=O [VIPGC-NO, VIP-Gly-Cys-NO]
- IC50 (guinea-pig trachea [4]): 32 ± 6 nM
- diastolic blood pressure (DBP) [5]: 120 mm Hg

- IC50 (guinea-pig trachea [6]): 47 ± 3 nM
- cAMP content of tracheal rings [3]: significant increase in the cAMP level
Compound: CC(C)NCC(O)c1ccc(O)c(O)c1 (stereo not shown) [isoproterenol]
- cGMP content of tracheal rings [3]: no appreciable changes in the cGMP content
- relative potency of inhibition of contraction amplitude [1]: two least potent inhibitors
- time for relaxation to reach a plateau (guinea-pig trachea [4]): about 5 minutes
- effect of pretreatment with 100 nM propanol on the induced relaxation (guinea-pig trachea [4]): blocked

Source: patent publication US5612314A, “Nitrosylated neuropeptides” (Brigham & Women's Hospital, priority 1995, dated 1997)
